Reference: ChEMBL document CHEMBL3638656, “Trifluoromethyl-oxadiazole derivatives and their use in the treatment of disease” (2015)

Target: Histone deacetylase 4 (Homo sapiens, UniProt P56524)
Assay: Inhibition Assay: Human recombinant HDAC4 was expressed in full length form (aa 2-1084) in Sf9 insect cells (obtained from ATCC) using baculovirus generated with Bac-to-Bac system (Invitrogen). Test compounds were serially diluted to reach final test concentrations from 0.003 uM to 100 uM. HDAC4 and test compounds were incubated in 25 mM Tris buffer pH 8.0 containing 137 mM NaCl, 2.7 mM KCl, 1 mM MgCl2 and 0.05% (w/v) bovine serum albumine for 2 hours at room temperature in presence of 10 uM of acetyl-Gly-Ala-Lys(E-trifluoroacetyl)-AMC (AMC=7-amino-4-methyl coumarin) in a final volume of 200 ul. Control wells with HDAC4 only (positive control) and without HDAC4 (negative control) were included on the microplate. Bovine trypsin (10 ul of a 0.4 mg/ml solution) was added and the plate incubated for additional 15 minutes at room temperature. The plate was placed in a fluorescence microplate reader, and read at an excitation wavelength of 360 nm and an emission wavelength of 450 nm.

Sequence of Histone deacetylase 4 (P56524 whole entry, the tested form may be a part): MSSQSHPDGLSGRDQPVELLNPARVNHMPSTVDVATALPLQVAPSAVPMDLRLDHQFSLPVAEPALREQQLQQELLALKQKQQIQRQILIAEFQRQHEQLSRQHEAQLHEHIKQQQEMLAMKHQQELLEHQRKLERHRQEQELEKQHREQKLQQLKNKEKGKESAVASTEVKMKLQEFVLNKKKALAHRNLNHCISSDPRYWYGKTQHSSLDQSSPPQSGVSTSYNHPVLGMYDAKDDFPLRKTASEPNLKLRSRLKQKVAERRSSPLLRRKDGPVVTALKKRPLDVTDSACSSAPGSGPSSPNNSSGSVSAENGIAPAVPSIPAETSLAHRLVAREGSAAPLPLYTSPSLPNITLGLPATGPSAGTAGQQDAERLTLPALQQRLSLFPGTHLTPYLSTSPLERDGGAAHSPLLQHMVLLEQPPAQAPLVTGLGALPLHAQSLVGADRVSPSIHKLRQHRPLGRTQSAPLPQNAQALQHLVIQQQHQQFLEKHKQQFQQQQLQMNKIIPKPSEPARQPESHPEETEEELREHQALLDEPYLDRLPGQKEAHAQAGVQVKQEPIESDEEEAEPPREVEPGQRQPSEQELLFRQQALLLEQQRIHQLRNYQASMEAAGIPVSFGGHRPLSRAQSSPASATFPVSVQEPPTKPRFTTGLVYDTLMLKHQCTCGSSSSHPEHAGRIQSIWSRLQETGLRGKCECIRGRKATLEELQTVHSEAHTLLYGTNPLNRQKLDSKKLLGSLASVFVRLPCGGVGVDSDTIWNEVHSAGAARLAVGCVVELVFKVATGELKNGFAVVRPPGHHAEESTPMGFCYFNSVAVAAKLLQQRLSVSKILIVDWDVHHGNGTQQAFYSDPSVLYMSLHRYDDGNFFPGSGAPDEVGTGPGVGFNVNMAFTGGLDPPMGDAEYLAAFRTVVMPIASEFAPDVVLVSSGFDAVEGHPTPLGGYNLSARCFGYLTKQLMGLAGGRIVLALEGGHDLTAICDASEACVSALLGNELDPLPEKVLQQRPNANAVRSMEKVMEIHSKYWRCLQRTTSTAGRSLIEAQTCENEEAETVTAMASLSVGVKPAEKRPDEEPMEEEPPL

IC50: 72 nM
SMILES: CCN(C)C[C@@H](C)NC(=O)c1ccc(-c2noc(C(F)(F)F)n2)cc1F
